Data reported in patent US20220033397A1, “PHARMACEUTICAL COMPOUNDS AND THEIR USE AS INHIBITORS OF UBIQUITIN SPECIFIC PROTEASE 19 (USP19)” (ALMAC DISCOVERY LIMITED, priority 2018, published 2022).

What follows are compounds tested against T1, Full-length USP19 (Homo sapiens, UniProt O94966) (assay: USP19 fluorescence polarisation (FP) homogeneous assay with Ubiquitin-Lys-TAMRA substrate). Details: 2.5 nM USP19, 30 min pre-incubation, average of at least two duplicate experiments.
T1 construct: Full-length USP19 was purchased from Boston Biochem (E-576); purchased Boston Biochem E-576
T1 sequence (O94966 1-1318): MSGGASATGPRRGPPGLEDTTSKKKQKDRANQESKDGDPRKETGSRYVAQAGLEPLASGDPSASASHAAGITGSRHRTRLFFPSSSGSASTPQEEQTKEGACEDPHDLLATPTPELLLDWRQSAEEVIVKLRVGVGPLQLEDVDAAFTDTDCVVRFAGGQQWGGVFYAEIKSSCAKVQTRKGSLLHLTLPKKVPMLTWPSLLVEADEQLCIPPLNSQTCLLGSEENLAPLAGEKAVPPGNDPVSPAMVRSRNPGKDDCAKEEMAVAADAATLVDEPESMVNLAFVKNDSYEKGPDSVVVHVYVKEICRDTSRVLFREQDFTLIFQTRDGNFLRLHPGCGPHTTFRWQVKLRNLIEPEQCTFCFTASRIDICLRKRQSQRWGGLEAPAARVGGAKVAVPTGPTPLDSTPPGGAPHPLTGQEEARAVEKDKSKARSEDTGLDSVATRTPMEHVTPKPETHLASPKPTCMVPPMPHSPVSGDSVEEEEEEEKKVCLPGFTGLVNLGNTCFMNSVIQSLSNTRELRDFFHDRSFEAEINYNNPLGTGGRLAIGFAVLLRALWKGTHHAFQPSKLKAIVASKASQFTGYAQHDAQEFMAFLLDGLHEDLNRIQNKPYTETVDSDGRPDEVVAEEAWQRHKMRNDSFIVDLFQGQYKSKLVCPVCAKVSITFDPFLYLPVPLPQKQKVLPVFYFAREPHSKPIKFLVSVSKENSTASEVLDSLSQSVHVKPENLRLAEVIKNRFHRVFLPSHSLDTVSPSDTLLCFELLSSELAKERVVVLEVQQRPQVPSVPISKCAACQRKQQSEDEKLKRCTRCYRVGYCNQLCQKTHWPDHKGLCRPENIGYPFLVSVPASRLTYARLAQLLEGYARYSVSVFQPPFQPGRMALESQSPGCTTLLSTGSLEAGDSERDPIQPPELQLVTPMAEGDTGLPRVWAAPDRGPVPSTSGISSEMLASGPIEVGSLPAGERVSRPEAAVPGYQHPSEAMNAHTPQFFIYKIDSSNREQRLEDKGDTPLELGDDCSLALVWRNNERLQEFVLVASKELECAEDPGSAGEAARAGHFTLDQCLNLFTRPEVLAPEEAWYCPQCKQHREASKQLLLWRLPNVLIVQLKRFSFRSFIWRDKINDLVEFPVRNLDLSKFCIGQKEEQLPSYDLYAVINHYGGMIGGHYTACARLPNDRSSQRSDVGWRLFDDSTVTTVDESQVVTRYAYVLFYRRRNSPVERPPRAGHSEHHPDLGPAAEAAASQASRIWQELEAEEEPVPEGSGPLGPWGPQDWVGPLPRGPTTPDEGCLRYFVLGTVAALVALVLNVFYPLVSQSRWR
Type: biochemical
Procedure, shortened: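 Full-length USP19 preincubated 30 min at RT with inhibitor (200 μM to 2 μM series, 8–18 points) before adding 500 nM Ubiquitin-Lys-TAMRA substrate.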

Row | SMILES | IC50 [µM]
1 | O=C(N1CCOC(F)(F)C1)N1CCC(O)(Cn2cnc(-c3ccccc3)cc2=O)C2(CCCC2)C1 (stereo not drawn) [Example 253, 3-((7-(2,2-Difluoromorpholine-4-carbonyl)-10-hydroxy-7-azaspiro[4.5]decan-10-yl)methyl)-6-phenylpyrimidin-4(3H)-one] | 5 to 50
2 | CC(NC(=O)N1CCC(O)(Cn2cnc(-c3ccccc3)cc2=O)C2(CCCC2)C1)c1ccoc1 (stereo not drawn) [Example 255, N-(1-(Furan-3-yl)ethyl)-10-hydroxy-10-((6-oxo-4-phenylpyrimidin-1(6H)-yl)methyl)-7-azaspiro[4.5]decane-7-carboxamide] | 0.5 to 5
3 | CC1(CNC(=O)N2CCC(O)(Cn3cnc(-c4ccccc4)cc3=O)C3(CCCC3)C2)CC1 (stereo not drawn) [Example 256, 10-Hydroxy-N-((1-methylcyclopropyl)methyl)-10-((6-oxo-4-phenylpyrimidin-1(6H)-yl)methyl)-7-azaspiro[4.5]decane-7-carboxamide] | 5 to 50
4 | O=C(N1CCC(O)(Cn2cnc(-c3ccccc3)cc2=O)C2(CCCC2)C1)N1CCOCC12CCCCC2 (stereo not drawn) [Example 261, 3-((10-Hydroxy-7-(4-oxa-1-azaspiro[5.5]undecane-1-carbonyl)-7-azaspiro[4.5]decan-10-yl)methyl)-6-phenylpyrimidin-4(3H)-one] | 5 to 50
5 | O=C(N1CCC(C(F)F)C1)N1CCC(O)(Cn2cnc(-c3ccccc3)cc2=O)C2(CCCC2)C1 (stereo not drawn) [Example 262, 3-((7-(3-(Difluoromethyl)pyrrolidine-1-carbonyl)-10-hydroxy-7-azaspiro[4.5]decan-10-yl)methyl)-6-phenylpyrimidin-4(3H)-one] | 5 to 50
6 | O=C(N1CCC(O)(Cn2cnc(-c3ccccc3)cc2=O)C2(CCCC2)C1)N1CCOCC1C(F)(F)F (stereo not drawn) [Example 263, 3-((10-Hydroxy-7-(3-(trifluoromethyl)morpholine-4-carbonyl)-7-azaspiro[4.5]decan-10-yl)methyl)-6-phenylpyrimidin-4(3H)-one] | 5 to 50
7 | O=C(N1CCC(O)(Cn2cnc(-c3ccccc3)cc2=O)C2(CCCC2)C1)N1CCCC1C1CC1 (stereo not drawn) [Example 264, 3-((7-(2-Cyclopropylpyrrolidine-1-carbonyl)-10-hydroxy-7-azaspiro[4.5]decan-10-yl)methyl)-6-phenylpyrimidin-4(3H)-one] | 0.5 to 5

Results, then the compound that gave them:

Row | IC50 [µM] | SMILES
8 | < 0.5 | O=C(NCc1ccccc1F)N1CCC(O)(Cn2cnc(-c3ccccc3)cc2=O)C2(CCCC2)C1 (stereo not drawn) [Example 254, N-(2-Fluorobenzyl)-10-hydroxy-10-((6-oxo-4-phenylpyrimidin-1(6H)-yl)methyl)-7-azaspiro[4.5]decane-7-carboxamide]
9 | 5 to 50 | N#Cc1cccc(CNC(=O)N2CCC(O)(Cn3cnc(-c4ccccc4)cc3=O)C3(CCCC3)C2)c1 (stereo not drawn) [Example 257, N-(3-Cyanobenzyl)-10-hydroxy-10-((6-oxo-4-phenylpyrimidin-1(6H)-yl)methyl)-7-azaspiro[4.5]decane-7-carboxamide]
10 | 5 to 50 | N#CCc1ccc(CNC(=O)N2CCC(O)(Cn3cnc(-c4ccccc4)cc3=O)C3(CCCC3)C2)cc1 (stereo not drawn) [Example 258, N-(4-(Cyanomethyl)benzyl)-10-hydroxy-10-((6-oxo-4-phenylpyrimidin-1(6H)-yl)methyl)-7-azaspiro[4.5]decane-7-carboxamide]
11 | 5 to 50 | O=C(NCC1=CCCOC1)N1CCC(O)(Cn2cnc(-c3ccccc3)cc2=O)C2(CCCC2)C1 (stereo not drawn) [Example 259, N-((5,6-Dihydro-2H-pyran-3-yl)methyl)-10-hydroxy-10-((6-oxo-4-phenylpyrimidin-1(6H)-yl)methyl)-7-azaspiro[4.5]decane-7-carboxamide]
12 | 5 to 50 | O=C(NCc1ccc2c(c1)COC2)N1CCC(O)(Cn2cnc(-c3ccccc3)cc2=O)C2(CCCC2)C1 (stereo not drawn) [Example 260, N-((1,3-Dihydroisobenzofuran-5-yl)methyl)-10-hydroxy-10-((6-oxo-4-phenylpyrimidin-1(6H)-yl)methyl)-7-azaspiro[4.5]decane-7-carboxamide]
